As a reminder, the AC50 is the concentration giving half of the maximal activity seen.

In experiment [1] the target is T1, Alpha-2A adrenergic receptor (Homo sapiens, UniProt P08913).
T1 sequence (P08913 whole entry): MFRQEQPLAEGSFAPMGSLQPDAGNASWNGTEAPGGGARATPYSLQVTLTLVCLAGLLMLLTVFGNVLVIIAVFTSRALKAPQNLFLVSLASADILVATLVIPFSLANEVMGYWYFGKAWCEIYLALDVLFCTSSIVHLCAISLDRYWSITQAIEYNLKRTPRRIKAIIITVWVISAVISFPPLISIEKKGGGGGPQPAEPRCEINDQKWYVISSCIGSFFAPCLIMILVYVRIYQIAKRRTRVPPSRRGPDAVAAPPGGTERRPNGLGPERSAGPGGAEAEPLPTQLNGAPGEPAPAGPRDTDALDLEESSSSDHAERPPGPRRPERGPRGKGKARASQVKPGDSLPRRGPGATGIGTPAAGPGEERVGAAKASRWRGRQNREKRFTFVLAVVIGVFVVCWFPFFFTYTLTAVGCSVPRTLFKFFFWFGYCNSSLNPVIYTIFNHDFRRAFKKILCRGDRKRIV

The target in experiment [2] is T2, Amine oxidase [flavin-containing] A (Homo sapiens, UniProt P21397).
T2 sequence (P21397 whole entry): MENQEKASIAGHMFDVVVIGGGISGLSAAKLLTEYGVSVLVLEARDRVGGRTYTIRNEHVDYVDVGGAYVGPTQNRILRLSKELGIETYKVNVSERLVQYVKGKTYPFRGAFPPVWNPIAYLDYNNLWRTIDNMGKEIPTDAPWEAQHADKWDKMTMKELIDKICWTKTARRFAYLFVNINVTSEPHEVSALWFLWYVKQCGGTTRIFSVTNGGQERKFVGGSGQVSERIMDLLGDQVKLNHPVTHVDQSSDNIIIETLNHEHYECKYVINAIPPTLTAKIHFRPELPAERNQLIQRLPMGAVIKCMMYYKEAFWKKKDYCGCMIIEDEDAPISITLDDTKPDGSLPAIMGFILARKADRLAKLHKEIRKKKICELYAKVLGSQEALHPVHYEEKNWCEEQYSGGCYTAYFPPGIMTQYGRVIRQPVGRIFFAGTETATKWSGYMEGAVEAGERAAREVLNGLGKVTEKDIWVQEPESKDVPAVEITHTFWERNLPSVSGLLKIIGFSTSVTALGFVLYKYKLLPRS
It counts as functional.

The target of a further experiment is T3, Thromboxane A2 receptor (Homo sapiens, UniProt P21731).
T3 sequence (P21731 whole entry): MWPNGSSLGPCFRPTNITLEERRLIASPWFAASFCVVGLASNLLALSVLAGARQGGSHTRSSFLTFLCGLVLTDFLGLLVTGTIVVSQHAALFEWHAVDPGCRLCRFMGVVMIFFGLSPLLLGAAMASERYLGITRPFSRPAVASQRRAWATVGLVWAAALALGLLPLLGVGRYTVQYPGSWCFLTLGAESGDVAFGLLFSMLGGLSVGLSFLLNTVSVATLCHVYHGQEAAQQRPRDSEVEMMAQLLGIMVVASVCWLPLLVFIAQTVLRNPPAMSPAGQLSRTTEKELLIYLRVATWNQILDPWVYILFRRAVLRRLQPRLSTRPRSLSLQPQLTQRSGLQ
It counts as functional, cell-based.

For experiment [3], the target named is T4, 5-hydroxytryptamine receptor 1A (Homo sapiens, UniProt P08908).
T4 sequence (P08908 whole entry): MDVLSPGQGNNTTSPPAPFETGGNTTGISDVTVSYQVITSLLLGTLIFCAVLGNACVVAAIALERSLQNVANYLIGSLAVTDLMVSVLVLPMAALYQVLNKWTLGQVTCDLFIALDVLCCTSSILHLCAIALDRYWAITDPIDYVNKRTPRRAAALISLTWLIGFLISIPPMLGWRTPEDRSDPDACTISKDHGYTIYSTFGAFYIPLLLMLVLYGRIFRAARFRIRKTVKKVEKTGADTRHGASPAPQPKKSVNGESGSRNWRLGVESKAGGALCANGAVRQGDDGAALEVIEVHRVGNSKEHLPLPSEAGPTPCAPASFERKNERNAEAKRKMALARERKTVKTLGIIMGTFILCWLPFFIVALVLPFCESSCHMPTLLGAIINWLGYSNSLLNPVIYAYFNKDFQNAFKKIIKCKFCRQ

Experiment [4] has as its target Rod cGMP-specific 3',5'-cyclic phosphodiesterase subunit alpha (Homo sapiens, UniProt P16499). It counts as functional.
The target in another experiment is T5, Substance-K receptor (Homo sapiens, UniProt P21452).
T5 sequence (P21452 whole entry): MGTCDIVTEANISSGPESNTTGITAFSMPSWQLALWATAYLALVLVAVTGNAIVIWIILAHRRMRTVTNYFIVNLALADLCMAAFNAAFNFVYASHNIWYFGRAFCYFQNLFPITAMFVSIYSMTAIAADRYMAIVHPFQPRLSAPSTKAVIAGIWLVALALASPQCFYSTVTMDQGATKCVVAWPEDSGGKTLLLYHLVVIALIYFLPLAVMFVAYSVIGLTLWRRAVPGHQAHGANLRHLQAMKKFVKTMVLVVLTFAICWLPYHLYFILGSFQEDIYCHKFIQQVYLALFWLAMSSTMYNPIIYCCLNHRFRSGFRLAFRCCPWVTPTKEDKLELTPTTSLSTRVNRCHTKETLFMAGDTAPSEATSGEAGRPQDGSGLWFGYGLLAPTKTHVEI

In experiment [5] the target is T6, Muscarinic acetylcholine receptor M4 (Homo sapiens, UniProt P08173).
T6 sequence (P08173 whole entry): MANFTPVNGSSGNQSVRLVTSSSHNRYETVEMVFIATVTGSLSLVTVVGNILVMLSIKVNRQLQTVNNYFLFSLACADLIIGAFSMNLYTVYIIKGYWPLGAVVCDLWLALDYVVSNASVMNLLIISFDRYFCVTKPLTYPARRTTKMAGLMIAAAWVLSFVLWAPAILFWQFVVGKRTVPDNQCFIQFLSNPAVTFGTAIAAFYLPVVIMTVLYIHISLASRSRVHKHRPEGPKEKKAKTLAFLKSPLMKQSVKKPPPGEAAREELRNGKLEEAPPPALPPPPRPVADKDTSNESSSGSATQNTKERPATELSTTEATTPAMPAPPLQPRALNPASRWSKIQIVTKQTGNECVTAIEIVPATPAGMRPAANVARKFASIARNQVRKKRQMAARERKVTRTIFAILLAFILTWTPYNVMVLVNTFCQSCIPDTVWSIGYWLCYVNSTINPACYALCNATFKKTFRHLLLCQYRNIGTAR

Experiment [6] concerns the target 5-hydroxytryptamine receptor 5A (Homo sapiens, UniProt P47898).
The target of a further experiment is D(1B) dopamine receptor (Homo sapiens, UniProt P21918).
Also: assay procedure not described here.

Chain of D(1B) dopamine receptor (P21918 whole entry): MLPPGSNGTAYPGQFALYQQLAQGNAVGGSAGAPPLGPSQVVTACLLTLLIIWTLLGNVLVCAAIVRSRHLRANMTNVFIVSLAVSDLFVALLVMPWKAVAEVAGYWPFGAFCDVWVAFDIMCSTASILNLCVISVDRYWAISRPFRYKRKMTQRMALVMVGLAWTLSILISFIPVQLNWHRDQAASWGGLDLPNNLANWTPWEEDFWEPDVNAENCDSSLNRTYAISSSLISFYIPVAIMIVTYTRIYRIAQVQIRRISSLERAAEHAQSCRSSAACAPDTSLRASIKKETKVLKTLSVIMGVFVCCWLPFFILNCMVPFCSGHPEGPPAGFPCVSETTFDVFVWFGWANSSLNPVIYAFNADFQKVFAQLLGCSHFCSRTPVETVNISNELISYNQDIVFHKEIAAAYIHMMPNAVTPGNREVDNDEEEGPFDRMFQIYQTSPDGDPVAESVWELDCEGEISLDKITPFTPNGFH
Chain of Rod cGMP-specific 3',5'-cyclic phosphodiesterase subunit alpha (P16499 whole entry): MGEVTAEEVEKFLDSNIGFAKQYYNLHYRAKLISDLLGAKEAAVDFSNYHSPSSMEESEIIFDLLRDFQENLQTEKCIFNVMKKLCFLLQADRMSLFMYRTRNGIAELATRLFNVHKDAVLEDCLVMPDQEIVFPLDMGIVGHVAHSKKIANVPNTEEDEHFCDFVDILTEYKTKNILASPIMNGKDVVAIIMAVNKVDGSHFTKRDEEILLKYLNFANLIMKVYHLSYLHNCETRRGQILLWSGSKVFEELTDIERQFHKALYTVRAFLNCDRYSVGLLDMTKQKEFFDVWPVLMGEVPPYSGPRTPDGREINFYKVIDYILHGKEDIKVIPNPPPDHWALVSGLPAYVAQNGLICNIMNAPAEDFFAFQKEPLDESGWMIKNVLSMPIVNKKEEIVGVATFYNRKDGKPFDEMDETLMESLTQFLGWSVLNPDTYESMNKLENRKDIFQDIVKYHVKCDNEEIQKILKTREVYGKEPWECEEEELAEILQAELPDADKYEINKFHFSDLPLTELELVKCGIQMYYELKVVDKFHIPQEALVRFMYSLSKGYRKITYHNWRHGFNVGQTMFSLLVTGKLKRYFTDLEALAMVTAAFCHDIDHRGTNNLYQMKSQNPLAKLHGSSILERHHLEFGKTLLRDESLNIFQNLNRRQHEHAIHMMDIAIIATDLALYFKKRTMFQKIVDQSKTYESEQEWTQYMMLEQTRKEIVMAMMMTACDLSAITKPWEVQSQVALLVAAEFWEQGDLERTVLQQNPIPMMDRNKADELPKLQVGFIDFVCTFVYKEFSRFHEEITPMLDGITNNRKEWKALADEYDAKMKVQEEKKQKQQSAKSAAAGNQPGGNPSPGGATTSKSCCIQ
Chain of 5-hydroxytryptamine receptor 5A (P47898 whole entry): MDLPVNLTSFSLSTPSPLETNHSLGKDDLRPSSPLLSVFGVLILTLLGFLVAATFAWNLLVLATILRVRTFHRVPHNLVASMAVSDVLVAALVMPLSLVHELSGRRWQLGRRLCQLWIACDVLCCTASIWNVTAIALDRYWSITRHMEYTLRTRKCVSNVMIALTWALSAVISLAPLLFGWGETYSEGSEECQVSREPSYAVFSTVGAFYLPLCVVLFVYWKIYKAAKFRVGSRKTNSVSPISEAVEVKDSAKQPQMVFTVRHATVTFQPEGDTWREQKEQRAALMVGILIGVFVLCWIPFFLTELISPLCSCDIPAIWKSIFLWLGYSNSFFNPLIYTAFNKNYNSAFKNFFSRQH

In the case of `NCCCC(O)(P(=O)(O)O)P(=O)(O)O` [ALENDRONIC ACID], the AC50 (in experiment [1]; in [2]; on Thromboxane A2 receptor; in experiment [3]) was over 30 µM each time.

With `COC1=C(OC)C(=O)C(CCCCCCCCCCO)=C(C)C1=O` [IDEBENONE], the AC50 (in experiment [4]; at Substance-K receptor; in experiment [5]; in experiment [6]; at D(1B) dopamine receptor) was over 10 µM throughout.

For the compound `O=C1CN=C(c2ccccc2)c2cc(Cl)ccc2N1` [NORDAZEPAM], the concentration at half-maximal activity (AC50) (in experiment [4]; on Substance-K receptor; in [5]; in experiment [6]; on D(1B) dopamine receptor) was over 10 µM in each case.

As to `CC(CCc1ccccc1)NC(C)C(O)c1ccc(O)cc1` (configuration not stated) [NYLIDRIN], the AC50 (in [4]; at Substance-K receptor; in experiment [5]; in experiment [6]; on D(1B) dopamine receptor) was over 10 µM throughout.

Regarding `O=C1Nc2ccc(Cl)cc2C(c2ccccc2)=NC1O` (configuration not stated) [OXAZEPAM], the AC50 (in experiment [4]; on Substance-K receptor; in experiment [5]; in experiment [6]; at D(1B) dopamine receptor) was over 10 µM each time.

For the compound `C[n+]1ccccc1/C=N/O` [PRALIDOXIME], the AC50 (in [1]; in experiment [2]; on Thromboxane A2 receptor; in experiment [3]) was over 30 µM each time.

With `N#C[C@@H]1CCCN1C(=O)CNC12CC3CC(CC(O)(C3)C1)C2` [VILDAGLIPTIN], the concentration at half-maximal activity (AC50) (in [4]; on Substance-K receptor; in experiment [5]; in [6]; on D(1B) dopamine receptor) was over 10 µM each time.

With COLISTIN, the AC50 (in experiment [1]; in experiment [2]; on Thromboxane A2 receptor; in experiment [3]) was over 30 µM in each case.

Source of the values: ChEMBL document CHEMBL5291721, “A preclinical secondary pharmacology resource illuminates target-adverse drug reaction associations of marketed drugs” (Nat Commun, 2023).
